From patent publication US20260184702A1, “SYNTHESIS, PHARMACOLOGY AND USE OF NEW WATER-SOLUBLE AND SELECTIVE FMS-LIKE TYROSINE KINASE3 (FLT3) INHIBITORS” (Universität Regensburg, priority 2022, published 2026) come the findings set out here.

For one data set, the target named is T1, human FLT3-ITD (Homo sapiens, UniProt P36888).
T1 sequence (P36888 1-993): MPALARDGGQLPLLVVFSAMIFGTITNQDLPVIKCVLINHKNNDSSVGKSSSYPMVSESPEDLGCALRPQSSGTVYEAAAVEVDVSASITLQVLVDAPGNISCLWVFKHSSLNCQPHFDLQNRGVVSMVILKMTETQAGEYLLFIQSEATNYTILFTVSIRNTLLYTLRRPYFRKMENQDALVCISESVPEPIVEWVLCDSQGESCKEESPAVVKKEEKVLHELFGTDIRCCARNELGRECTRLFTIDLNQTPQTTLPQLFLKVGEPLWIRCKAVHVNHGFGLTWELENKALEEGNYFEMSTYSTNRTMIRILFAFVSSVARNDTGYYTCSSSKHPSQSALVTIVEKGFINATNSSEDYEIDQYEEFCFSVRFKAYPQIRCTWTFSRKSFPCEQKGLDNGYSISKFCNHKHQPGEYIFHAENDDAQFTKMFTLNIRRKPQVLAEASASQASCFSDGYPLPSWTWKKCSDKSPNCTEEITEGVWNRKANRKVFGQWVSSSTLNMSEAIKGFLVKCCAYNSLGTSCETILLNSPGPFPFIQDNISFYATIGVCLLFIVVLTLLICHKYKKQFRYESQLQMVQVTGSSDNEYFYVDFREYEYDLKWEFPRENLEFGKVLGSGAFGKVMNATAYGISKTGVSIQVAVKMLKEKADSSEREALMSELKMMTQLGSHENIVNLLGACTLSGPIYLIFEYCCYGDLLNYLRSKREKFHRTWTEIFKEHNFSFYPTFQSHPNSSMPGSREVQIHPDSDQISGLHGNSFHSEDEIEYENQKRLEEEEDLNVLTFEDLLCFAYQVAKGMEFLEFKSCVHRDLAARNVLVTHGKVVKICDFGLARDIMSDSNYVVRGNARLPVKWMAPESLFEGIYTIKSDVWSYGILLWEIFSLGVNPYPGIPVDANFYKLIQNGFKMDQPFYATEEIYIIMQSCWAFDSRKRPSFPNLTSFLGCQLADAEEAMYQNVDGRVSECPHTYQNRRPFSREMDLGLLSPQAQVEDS
Briefly: Enzymatic kinase assay FLT3 (ITD), 10-dose IC50 mode (Reaction Biology). It is filed as biochemical. Conditions: 10 μM ATP; read-out: IC50 FLT3 (ITD).

Data set [1] is described as follows: Solubility test by UV-Vis spectroscopy of saturated solutions. It is filed as physicochemical. Particulars: thermodynamic from solid, saturated solution. The protocol: All UV-Vis measurements were carried out with an Agilent Cary 60 UV-Vis 2.00 between 800-200 nm. The absorbance was measured with a scan rate of 300.0 nm/min, a data interval of 0.50 nm and an UV-Vis Average Time of 0.10 s. For all measurements a cuvette with 10 mm light path was used. A calibration curve was plotted from several different concentrations and the solubility of the respective compound was determined by measuring the absorbance of a diluted saturated solution. As a blank curve a mixture of ultrapure water and ethanol in a ratio of 1:1 or 5:95 was recorded. For the calibration curve a 100 μM or a 10 μM solution of the compound in an ultrapure water:ethanol (1:1) or (5:95)-mixture was prepared and diluted to obtain at least 6 concentrations. […] The supernatant was taken using a syringe and filtered through a syringe filter (RC Membrane). The saturated solution was diluted with ultrapure water and ethanol to obtain an appropriate concentration in a water:ethanol (1:1) or (5:95)-mixture. The long wave absorbance maximum was used for determination of the solubility (mean values, determination in triplicate). […] By plotting the concentration of the solution against the absorbance values at the previously determined wavelength maximum a calibration curve was obtained (FIG. 1B).

For data set [2], the system named is MV4-11 cells (FLT3-ITD positive). Briefly: Cell Titer-Glo proliferation assay with MV4-11 cells. The format is cell-based. Particulars: Homo sapiens, MV4-11, 72 h; read-out: IC50 MV4-11 cells. The protocol:
MV4-11 cells are human acute myeloid leukemia cell lines that carry a FLT3-ITD mutation (American Type Culture Collection, ATCC, Manassas, VA, United States). Cells were cultured in IMDM medium plus 100 μg/mL penicillin, 100 μg/mL streptomycin and 10% FBS. All cells were kept at 37° C., 5% CO2.
Cell proliferation was assessed with Cell Titer-Glo® Viability Assay (Promega; Madison, WI, United States) according to the manufacturer's instructions.

Data set [3] in a line: Solubility test by UV-Vis spectroscopy of saturated solutions. The format is physicochemical. Conditions: solvent DMSO.
For data set [4], the target named is T2, recombinant human FLT3 (D835Y) (Homo sapiens, UniProt P36888, D835Y).
T2 construct: purchased Reaction Biology
T2 sequence (P36888 27-993 D835Y): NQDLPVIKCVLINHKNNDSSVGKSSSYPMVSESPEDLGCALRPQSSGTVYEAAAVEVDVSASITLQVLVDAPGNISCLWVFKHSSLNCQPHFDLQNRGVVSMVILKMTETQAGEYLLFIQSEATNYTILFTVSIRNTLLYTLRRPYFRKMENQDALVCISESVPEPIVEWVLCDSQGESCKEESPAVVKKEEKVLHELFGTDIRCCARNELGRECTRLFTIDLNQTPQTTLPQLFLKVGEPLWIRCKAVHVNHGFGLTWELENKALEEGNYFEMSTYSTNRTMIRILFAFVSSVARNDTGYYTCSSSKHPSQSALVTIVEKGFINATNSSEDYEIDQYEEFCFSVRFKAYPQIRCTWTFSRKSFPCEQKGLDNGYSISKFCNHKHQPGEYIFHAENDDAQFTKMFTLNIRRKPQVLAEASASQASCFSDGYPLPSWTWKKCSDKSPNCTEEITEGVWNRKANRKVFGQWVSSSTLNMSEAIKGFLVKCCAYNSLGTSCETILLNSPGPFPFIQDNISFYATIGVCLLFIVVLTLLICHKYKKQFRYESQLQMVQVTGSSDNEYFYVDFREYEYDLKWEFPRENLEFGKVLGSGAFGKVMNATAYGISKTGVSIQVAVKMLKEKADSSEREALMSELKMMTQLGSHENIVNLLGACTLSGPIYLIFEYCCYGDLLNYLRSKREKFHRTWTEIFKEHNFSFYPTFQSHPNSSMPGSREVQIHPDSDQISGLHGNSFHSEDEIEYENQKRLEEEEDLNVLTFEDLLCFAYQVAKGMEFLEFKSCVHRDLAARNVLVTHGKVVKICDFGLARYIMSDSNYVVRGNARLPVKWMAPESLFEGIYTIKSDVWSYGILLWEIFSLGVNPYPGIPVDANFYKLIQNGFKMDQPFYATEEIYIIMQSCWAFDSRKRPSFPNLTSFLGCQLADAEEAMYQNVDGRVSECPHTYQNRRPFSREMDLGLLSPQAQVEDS
Briefly: Enzymatic kinase assay FLT3 (D835Y), 10-dose IC50 mode (Reaction Biology). It is filed as biochemical. Conditions: 10 μM ATP; read-out: IC50 FLT3 (D835Y).

≈ marks a conversion by molar mass, not a printed value. Like-named read-outs stand apart in the source and are kept apart here.

`C=CC(=O)N1CCN(Cc2c(O)ccc3[nH]c(C(=O)c4cc5cc(NC(=O)Nc6cc(C(C)(C)C)on6)ccc5o4)cc23)CC1` [Compound 56b, 1-(2-(4-((4-Acryloylpiperazin-1-yl)methyl)-5-hydroxy-1H-indole-2-carbonyl)benzofuran-5-yl)-3-(5-(tert-butyl)isoxazole-3-yl)urea 2,2,2-trifluoroacetate]: the IC50 (commonly the concentration that inhibits the measured activity by half) on human FLT3-ITD turned out to be 1.47 nM; in data set [2] it was 0.17 nM; in data set [4] it was 10.8 nM. Also, the solubility (in general, how much of the substance goes into solution per volume) in data set [1] (ethanol, organic solvent or mixture, ethanol, read-out: Solubility Ethanol) was 2540 µg/mL (≈ 4160 µM); in data set [1] (ultrapure water, water, ultrapure water, read-out: Solubility Water), 220 µg/mL (≈ 360 µM). In addition, the “Solubility DMSO” value in data set [3] is recorded as “Soluble”.
